From PubChem BioAssay (NCI)
“And” between values parts separate entries of the source, which are not always exact repeats. Equal entries are not always repeated.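 Interpolation was linear, between the two tested concentrations surrounding the appropriate level; five concentrations were tested over 48 hours in 96-well plates. GI50 is the concentration that inhibits growth by half. TGI: concentration producing complete growth inhibition.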

Tests used:
Assay in all cases: NCI tumour cell line growth inhibition, 48 h
[1] = system: SN12C renal
[2] = system: SF-295 CNS
[3] = system: DMS 273 small cell lung
[4] = system: M14 melanoma
[5] = system: DLD-1 colon
[6] = system: UACC-62 melanoma
[7] = system: NCI-H226 lung
[8] = system: KM12 colon
[9] = system: BT-549 breast
[10] = system: MDA-MB-231 breast

SMILES	TGI [1]	TGI [2]	TGI [3] [µM]	TGI [4]	TGI [5] [µM]	TGI [6]	TGI [7] [µM]	TGI [8]	GI50 [9] [µM]	TGI [9]	GI50 [1] [µM]	GI50 [7] [µM]	GI50 [2] [µM]	GI50 [8] [µM]	GI50 [4] [µM]	GI50 [6] [µM]	GI50 [10] [µM]	TGI [10]
COc1ccc2c(c1OCC(=O)O)C(=O)C(CCC(=O)O)CC2 (stereo not given)	> 100 µM	> 100 µM	> 100	> 100 µM	> 100	> 100 µM												
Cc1cc2c(=O)c3ccccc3[nH]c2c(C(N)=O)c1C	> 100 µM	> 100 µM		> 100 µM	> 100	> 100 µM	> 100	> 100 µM										
O=C1CCC2(c3ccc(Cl)cc3)Nc3cc(Cl)ccc3N12 (stereo not given)	28.6 µM	21.4 µM	22.3	28.7 µM	20	21.2 µM		24.4 µM										
CCCCCCCCCCCCCCCC(=O)OCCOCCOCCOCc1ccccc1	> 100 µM	98.4 µM	> 100		> 100	> 100 µM	> 100	> 100 µM										
COC1C(OC(=S)Nc2ccccc2)c2ccccc2N1C(C)=O (stereo not given)	> 100 µM	> 100 µM	> 100	> 100 µM	> 100	> 100 µM		> 100 µM										
CC(C)(C)c1cc(C(P(=O)(O)O)P(=O)(O)O)cc(C(C)(C)C)c1O		> 100 µM	> 100	> 100 µM	> 100	> 100 µM	> 100	> 100 µM										
CN1CCC(=O)/C(=C/c2ccccc2)C1	28.4 µM	29.3 µM	14.9	26.7 µM	12.5	36.9 µM	32.2	5.28 µM										
O=C1N=C2Sc3ccc4ccccc4c3N2C1=O	43.8 µM	36.5 µM	53.2	73.8 µM	95	> 100 µM	57	> 100 µM										
COCC(OC)C(CC=C(C#N)C#N)OC (stereo not given)	> 100 µM	> 100 µM	> 100	> 100 µM		> 100 µM		> 100 µM										
CC1(C)COC(c2cccc3c2C(=O)c2cccc(Cl)c2-3)=N1	> 100 µM	> 100 µM	> 100	> 100 µM		> 100 µM		> 100 µM										
CCOC(=O)c1ccc(/C(C)=N/NC(N)=S)cc1	> 100 µM	> 100 µM	> 100	> 100 µM	> 100	> 100 µM												
C[C@@H]1C[C@@H]([C@@H](CC2CC(=O)NC(=O)C2)OC(=O)CC(=O)c2ccccc2)C(=O)[C@@H](C)C1	> 39.3 µM	12.3 µM		> 49.1 µM		> 100 µM	> 100	70.6 µM	2.32	66.7 µM	0.15	0.686	0.224	0.888	0.588	0.915	2.94	90.5 µM
Cc1ccc2nc(/C(=C/c3ccc(/C=C(\NC(=O)c4ccccc4)c4nc5ccc(C)cc5[nH]4)c(C)c3)NC(=O)c3ccccc3)[nH]c2c1	30.1 µM		> 100	52.7 µM	> 100	13.1 µM	77.5	37.5 µM										
COC(=O)c1ccc2c(c1)C(=O)c1c-2n(CCCN=[N+]=[N-])c(=O)c2cc(OC)c(OC)cc12	> 100 µM	> 100 µM		> 100 µM		> 100 µM	> 100	> 100 µM	> 100	> 100 µM	> 100	> 100	> 100	> 100	> 100	> 100	> 100	> 100 µM
O=C(CC1C(=O)Nc2ccccc2S1=O)Nc1cc(Cl)ccc1Cl (stereo not given)	> 100 µM	> 100 µM	> 100	> 100 µM	> 100	> 100 µM	> 100											
CCN1CCN(c2cc(C)c3cc(NC(=O)c4ccc(OC)c(OC)c4)ccc3n2)CC1	> 100 µM	38.5 µM		> 100 µM		> 64.8 µM	> 100	> 86.3 µM	> 33	> 100 µM	> 100	> 54.7	11.8	3.48	8.88	> 39.4	11.2	> 100 µM

SMILES	TGI [1]	TGI [2]	TGI [3] [µM]	TGI [4]	TGI [5] [µM]	TGI [6]	TGI [7] [µM]	TGI [8]	GI50 [9] [µM]	TGI [9]	GI50 [1] [µM]	GI50 [7] [µM]	GI50 [2] [µM]	GI50 [8] [µM]	GI50 [4] [µM]	GI50 [6] [µM]	GI50 [10] [µM]	TGI [10]
Cc1nc(N)sc1N=Nc1ccccc1Br	57.5 µM	97.7 µM		67.6 µM		45.4 µM	68.2	51.1 µM		46.4 µM								67 µM
CCCC(=O)Nc1cn(COC)c(C(=O)N2C[C@@H]3C[C@]34C2=CC(=O)c2[nH]cc(C)c24)n1	30.9 µM and 22.9 µM	50 µM and 15.8 µM		50 µM and 16.2 µM		16.8 µM and 24.9 µM	34.1	> 5 µM and 24.5 µM		24.7 µM and 21.7 µM			3.68	10.5	4.12	12.4	19.9	27 µM and 51.1 µM
COc1cc(N=Nc2ccc(O)c3ncccc23)c2ncccc2c1	> 100 µM	> 100 µM		> 100 µM		7.68 µM	> 100	> 100 µM	4.31	> 100 µM	4.45	6.07	18.5	4.21	2.66	2.4	3.16	> 100 µM
C=CCC1(c2ccc(OC)cc2)C=CC(=O)CC1 (stereo not given)	> 100 µM	> 100 µM		> 100 µM		> 100 µM	> 100	> 100 µM		> 100 µM								> 100 µM
O=C(/C(=C/c1ccc(Cl)cc1)c1ccccc1)c1ccccc1	31.7 µM	39.7 µM		31.4 µM	31.8	29.4 µM	31.7	30.5 µM										
NS(=O)(=O)c1ccc(N=Nc2c(O)c(C(=O)O)cc3ccccc23)cc1	> 100 µM	> 100 µM		> 100 µM		> 100 µM	> 100	> 100 µM		> 100 µM								> 100 µM
CC1(C)OC2C(CO[Si](C)(C)C(C)(C)C)OC(n3c(I)c(C#C[Si](C)(C)C)c(=O)[nH]c3=O)C2O1 (stereo not given)	37.5 µM	> 100 µM		28.1 µM		50.5 µM	34	92.7 µM	13.2	32.1 µM	15.1	17	> 100	23.2	13.4	21.5	4.22	17 µM
CNCCOC(=O)/C=C1\CC[C@H]2[C@@H]([C@@H](O)C(=O)[C@@H]3[C@]2(C)CC[C@H](O)[C@]3(C)C(=O)OC)[C@H]1C	1.64 µM	0.951 µM		2.46 µM		2.93 µM	1.99	2.12 µM	0.286	1.09 µM	0.327	0.566	0.301	0.564	1.08	1.41	1.77	5.91 µM
N#CC(C(=O)/C(=N\NC(N)=O)C(C#N)c1ccc(Cl)cc1)c1ccc(Cl)cc1 (stereo not given)	> 100 µM	> 100 µM		> 100 µM	> 100	> 100 µM	> 100	> 100 µM										
O=C(Nc1cccc(Cl)c1)C(=O)C(C(=O)c1ccc2ccccc2c1)C1OC(=O)c2ccccc21 (stereo not given)	51 µM		89.6	36.7 µM	32.7	40.6 µM	11.5	60.3 µM										
O=C(c1ccco1)c1c(C(F)(F)F)nc2ccc(Cl)cc2[n+]1[O-]	> 100 µM	> 100 µM		> 100 µM		> 100 µM	> 100	> 100 µM	> 100	> 100 µM	> 100	> 100	> 100	> 100	> 100	> 100	> 100	> 100 µM
S=c1[nH]c(=S)c2cc3ccccc3nc2[nH]1	> 100 µM	> 100 µM		> 100 µM		> 100 µM	> 100	> 100 µM	35.4	> 100 µM	> 100	> 100	> 100	29.5	> 100	69.5	51	> 100 µM
COC(=O)c1c2c(c(C)[n+]([O-])c1C)C(=O)C=C(NCc1ccc(F)cc1)C2=O	1.41 µM	1.94 µM		1.9 µM		1.16 µM	4.13	2.22 µM	1.3	2.63 µM	0.345	1.77	0.592	0.357	0.513	0.175	0.354	4.46 µM
O=C(Nc1ccc(Br)cc1F)c1cc(Cl)ccc1O	5.68 µM	3.65 µM		3.58 µM		1.16 µM	4.57	5.43 µM	0.44	2.1 µM	0.491	1.2	1.77	2.14	0.585	0.292	0.554	5.23 µM
NC(N)=NCCCC(=O)O	> 100 µM	> 100 µM		> 100 µM		> 100 µM	> 100	> 100 µM		> 100 µM								> 100 µM
